Converted amounts (≈) assume the structure as drawn. The source made the active and inactive calls. The calls are words filed in the database; no cut-off is given here.
How the values were obtained:
[1] = Apparent permeability across basolateral to apical side in human Caco2 cells at 5 uM incubated for 2 hrs; assay type: ADME, cell-based, Caco-2; conditions: Caco-2
[2] = Kinetic solubility in Hepes buffer at 500 uM at pH 7.4 after 90 mins; assay type: physicochemical; conditions: read-out: Kinetic_solubility
in vitro [3] = conditions: human, liver microsomes
[4] = Metabolic stability in human plasma at 5 uM incubated for 1 hr by LC-MS method; assay type: ADME, cell-free; conditions: read-out: Stability
in vitro [5] = conditions: mouse, liver microsomes
HCC827 [6] = test: cells; assay type: functional, cell-based; conditions: Homo sapiens
Description: Antiproliferative activity against human HCC827 cells harboring EGFR-delE746_A750 mutant incubated for 96 hrs measured on day 5 by CellTiterGlo assay

[7] = Metabolic stability in mouse plasma at 5 uM incubated for 1 hr by LC-MS method; assay type: ADME, cell-free; conditions: read-out: Stability
[8] = Permeability of the compound at 500 uM incubated for 20 hrs by PAMPA; assay type: physicochemical
[9] = Fraction unbound in mouse 100% plasma at 5 uM incubated for 6 hrs by LC-MS method; assay type: ADME, cell-free
NCI-H1975 [10] = test: cells; assay type: functional, cell-based; conditions: Homo sapiens
[11] = Apparent permeability across apical to basolateral side in human Caco2 cells at 5 uM incubated for 2 hrs; assay type: ADME, cell-based, Caco-2; conditions: Caco-2
A-431 [12] = test: cells; assay type: ADME, cell-based; conditions: Homo sapiens
Description: Antiproliferative activity against human A431 cells expressing wild type EGFR incubated for 96 hrs measured on day 5 by CellTiterGlo assay

[13] = biological target: Epidermal growth factor receptor (Homo sapiens, UniProt P00533, L858R/T790M)
[14] = biological target: Epidermal growth factor receptor (Homo sapiens, UniProt P00533, L858R)
A549 [15] = test: cells; assay type: ADME, cell-based; conditions: Homo sapiens
Description: Antiproliferative activity against human A549 cells harboring KRAS-G12S mutant incubated for 96 hrs measured on day 5 by CellTiterGlo assay

[16] = biological target: Epidermal growth factor receptor (Homo sapiens, UniProt P00533)
A549 [17] = test: Antiproliferative activity against human A549 cells harboring KRAS-G12S mutant at 30 uM incubated for 96 hrs measured on day 5 by CellTiterGlo assay; assay type: cell-based; conditions: a549, 96 h
A-431 [18] = test: Antiproliferative activity against human A431 cells expressing wild type EGFR at 30 uM incubated for 96 hrs measured on day 5 by CellTiterGlo assay; assay type: cell-based; conditions: a-431, 96 h
NCI-H1975 [19] = test: Antiproliferative activity against human NCI-H1975 cells harboring EGFR-L858R/T790M double mutant at 30 uM incubated for 96 hrs measured on day 5 by CellTiterGlo assay; assay type: functional, cell-based
in vitro [20] = conditions: human, Caco-2
Description: Efflux ratio of apparent permeability from basolateral side to apical side over apical side to basolateral side over in human Caco2 cells at 5 uM incubated for 2 hrs

[21] = system: Epidermal growth factor receptor (Homo sapiens), P00533 [L858R,T790M]; test: Covalent binding affinity to human recombinant GST-tagged EGFR L858R/T790M double mutant expressed in baculovirus expression system by mass spectrometry
HCC827 [22] = test: Antiproliferative activity against human HCC827 cells harboring EGFR-delE746_A750 mutant at 30 uM incubated for 96 hrs measured on day 5 by CellTiterGlo assay; assay type: functional, cell-based

Compound | solubility kinetic at 1.5 h, 500 µM [2] [µM] | microsomal CLint at 50 min, 3 µM (in vitro [3]) [µL/min/mg] | remaining at 1 h, 5 µM [4] [%] | microsomal CLint at 50 min, 3 µM (in vitro [5]) [µL/min/mg] | EC50 (HCC827 [6]) [µM] | remaining at 1 h, 5 µM [7] [%] | permeability [8] [%] | fraction unbound at 6 h, 5 µM [9] | EC50 (NCI-H1975 [10]) [µM] | EC50 (A-431 [12]) [µM] | IC50 [13] [µM] | IC50 [14] [µM] | EC50 (A549 [15]) [µM] | IC50 [16] [µM] | Activity (A549 [17]) | Activity (A-431 [18]) | Activity (NCI-H1975 [19]) | further results
C=CC(=O)Nc1cccc(Nc2nc(Nc3ccc(N4CCN(C(C)=O)CC4)cc3OC)ncc2C(F)(F)F)c1 [ROCILETINIB] | 10 (≈ 5.56 µg/mL) | 5.1 | 78 | 81 | 0.045 | 75 | 88 | 0.01 | 0.1 | – | – | – | – | – | – | – | – | Papp B→A at 2 h, 5 µM [1]: 0.068 ×10⁻⁶ cm/s; Papp A→B at 2 h, 5 µM [11]: 0.05 ×10⁻⁶ cm/s
C=CC(=O)N1CCC[C@@H](n2nc(-c3cccc(C(F)(F)F)c3)c3c(N)ncnc32)C1 | 427 (≈ 178 µg/mL) | 578 | 96 | 2770 | 0.65 | 99 | 76 | 0.09 | 4.16 | 16 | 0.22 | 0.03 | 22.2 | – | – | – | – | –
C=CC(=O)N1CCC[C@@H](n2nc(-c3ccccc3)c3c(N)ncnc32)C1 | 461 (≈ 161 µg/mL) | 122 | 97 | 924 | 0.07 | 91 | 59 | 0.33 | 3.67 | 12.7 | 0.24 | 0.01 | 21.7 | 0.14 | – | – | – | –
C=CC(=O)N1CCC[C@@H](n2ncc3c(N)ncnc32)C1 | – | – | – | – | 9.9 | – | – | – | – | – | 1.6 | 2.5 | – | 6.9 | Non-Toxic | Non-Toxic | inactive | –
C=CC(=O)N1CCC[C@@H](n2nc(-c3ccc4ccccc4c3)c3c(N)ncnc32)C1 | 248 (≈ 98.8 µg/mL) | 770 | 94 | 2310 | < 0.014 | 86 | 73 | 0.02 | 0.14 | 3.6 | < 0.001 | 0.001 | 11.6 | 0.02 | – | – | – | Papp B→A at 2 h, 5 µM [1]: 0.13 ×10⁻⁶ cm/s; efflux ratio at 2 h, 5 µM (in vitro [20]): 0.3; Activity [21]: Active; Papp A→B at 2 h, 5 µM [11]: 0.51 ×10⁻⁶ cm/s
C=CC(=O)N1CCC[C@@H](n2nc(-c3cnc4[nH]ccc4c3)c3c(N)ncnc32)C1 | 457 (≈ 178 µg/mL) | 108 | 98 | 495 | < 0.014 | 96 | 27 | 0.37 | 0.28 | 1.39 | 0.003 | – | 3.45 | 0.01 | – | – | – | –
CCC(=O)N1CCC[C@@H](n2nc(-c3ccc(F)cc3)c3c(N)ncnc32)C1 | – | – | – | – | 25.9 | – | – | – | – | – | > 10 | 5 | – | > 10 | Non-Toxic | Non-Toxic | inactive | –
CCC(=O)N1CCC[C@@H](n2nc(-c3cccc(C(F)(F)F)c3)c3c(N)ncnc32)C1 | – | – | – | – | – | – | – | – | – | – | > 10 | > 10 | – | > 10 | Non-Toxic | Non-Toxic | inactive | Activity (HCC827 [22]): inactive
